Where two headings read alike, the source gives them in different places. Marks after values point to notes of the source that are not given here.
Tests used:
IGR-OV1 = conditions: for CC50: read-out: LC50
786-0 = conditions: for CC50: read-out: LC50
BT-549 = conditions: for CC50: read-out: LC50
COLO 205 = conditions: for CC50: read-out: LC50
[1] = test system: Heterozygous nude CD-1 male mice; assay: Intestinal pathological analysis (crypt epithelial cell apoptosis) in treated mice; conditions: multiple doses
Procedure: (§1) Heterozygous nude CD-1 male mice were treated (i.p.) with multiple doses consisting of either one dose daily for three consecutive days (cis-AVTP or trans-AVTG, 21.25 μmol/kg, 6-TG, 8.5 or 21.25 μmol/kg, or vehicle; one cycle), or one dose daily for three consecutive days, repeated again five days later (cis-AVTP, trans-AVTG or 6-TG, 8.5 or 21.25 μmol/kg, or vehicle; two cycles).
(§2) The mice were sacrificed 24 h after the last treatment. Urine was collected for 24 h before initiation of treatment and every 24 h thereafter until the mice were sacrificed. Blood was collected by cardiac puncture and blood cells counted. Sections of liver, kidney, intestines, stomach and sternum were stained with hematoxylin and eosin and subjected to pathological analysis. Bone marrow smears were prepared for assessment of bone marrow cellularity. Liver function was evaluated by measuring alanine aminotransferase-(ALT) and aspartate aminotransferase (AST) activities in plasma. Kidney function was evaluated by measuring blood urea nitrogen in plasma and γ-glutamyltransferase activity and glucose levels in urine.

SK-MEL-5 = conditions: for CC50: read-out: LC50
RPMI-8226 = conditions: for CC50: read-out: LC50
SF-295 = conditions: for CC50: read-out: LC50
[2] = test system: Heterozygous nude CD-1 male mice; assay: Hematology analyses in treated mice; conditions: i.p.; for change in peripheral white blood cell counts: trans-AVTG: only 21.25 μmol/kg two cycles, 6-TG: 8.5 or 21.25 μmol/kg one cycle or 21.25 μmol/kg two cycles
Procedure: as §1, §2

SN12C = conditions: Renal, NCI database, cited from earlier work; for CC50: read-out: LC50 (the source's name)
SF-539 = conditions: SF-539, CNS, NCI database, cited from earlier work; for CC50: read-out: LC50 (the source's name)
NCI/ADR-RES = conditions: Breast, NCI database, cited from earlier work; for CC50: read-out: LC50 (the source's name)
K-562 = conditions: K-562, Leukemia, NCI database, cited from earlier work; for CC50: read-out: LC50 (the source's name)
UO-31 = conditions: UO-31, Renal, NCI database, cited from earlier work; for CC50: read-out: LC50 (the source's name)
NCI-H460 = conditions: NCI-H460, Non-Small Cell Lung, NCI database, cited from earlier work; for CC50: read-out: LC50 (the source's name)
HS 578T = conditions: Breast, NCI database, cited from earlier work; for CC50: read-out: LC50 (the source's name)
MDA-MB-231/ATCC = conditions: Breast, NCI database, cited from earlier work; for CC50: read-out: LC50 (the source's name)
MDA-MB-435 = conditions: MDA-MB-435, Breast, NCI database, cited from earlier work; for CC50: read-out: LC50 (the source's name)
HOP-92 = conditions: HOP-92, Non-Small Cell Lung, NCI database, cited from earlier work; for CC50: read-out: LC50 (the source's name)
CCRF-CEM = conditions: Leukemia, NCI database, cited from earlier work; for CC50: read-out: LC50 (the source's name)
HT29 = conditions: HT29, Colon, NCI database, cited from earlier work; for CC50: read-out: LC50 (the source's name)
OVCAR-8 = conditions: OVCAR-8, Ovarian, NCI database, cited from earlier work; for CC50: read-out: LC50 (the source's name)

CC(=O)C=CSc1ncnc2nc[nH]c12 [cis-AVTP, 6-(2-acetylvinylthio) purine]
GI50 (IGR-OV1; Homo sapiens, IGROV-1, 48 h): 2 µM
CC50 (IGR-OV1; Homo sapiens, IGROV-1, 48 h): 29.8 µM
TGI (IGR-OV1; IGR-OV1, Ovarian, 48 h): 7.72 µM
TGI (786-0; 786-0, Renal, 48 h): 3.48 µM
GI50 (786-0; Homo sapiens, 786-0, 48 h): 0.37 µM
CC50 (786-0; Homo sapiens, 786-0, 48 h): 24.9 µM
TGI (BT-549; BT-549, Breast, 48 h): 3.48 µM
GI50 (BT-549; Homo sapiens, BT-549, 48 h): 1.24 µM
CC50 (BT-549; Homo sapiens, BT-549, 48 h): 9.78 µM
TGI (COLO 205; COLO 205, Colon, 48 h): 1.70 µM
GI50 (COLO 205; Homo sapiens, COLO 205, 48 h): 0.46 µM
CC50 (COLO 205; Homo sapiens, COLO 205, 48 h): 4.74 µM
crypt epithelial apoptosis, large intestines [1]: no increase
crypt epithelial cell apoptosis, small intestines [1]: increased slightly
GI50 (SK-MEL-5; Homo sapiens, SK-MEL-5, 48 h): 1.3 µM
CC50 (SK-MEL-5; Homo sapiens, SK-MEL-5, 48 h): 8.07 µM
TGI (SK-MEL-5; SK-MEL-5, Melanoma, 48 h): 3.24 µM
GI50 (RPMI-8226; Homo sapiens, RPMI-8226, 48 h): 0.12 µM
CC50 (RPMI-8226; Homo sapiens, RPMI-8226, 48 h): > 100 µM
TGI (RPMI-8226; RPMI-8226, Leukemia, 48 h): 1.67 µM
GI50 (SF-295; Homo sapiens, SF-295, 48 h): 0.56 µM
CC50 (SF-295; Homo sapiens, SF-295, 48 h): 57.8 µM
TGI (SF-295; SF-295, CNS, 48 h): 11.2 µM
PLT ([2]; 8.5 μmol/kg, two cycles): 1160 ± 349 × 10^3 cells/μl
RBC ([2]; 8.5 μmol/kg, two cycles): 9.5 ± 0.3 × 10^6 cells/μl
WBC ([2]; 8.5 μmol/kg, two cycles): 5.9 ± 2.3 × 10^3 cells/μl
PLT ([2]; 21.25 μmol/kg, one cycle): 1644 ± 253^a × 10^3 cells/μl
RBC ([2]; 21.25 μmol/kg, one cycle): 8.9 ± 0.6^a × 10^6 cells/μl
WBC ([2]; 21.25 μmol/kg, one cycle): 8.0 ± 1.2^a × 10^3 cells/μl
PLT ([2]; 21.25 μmol/kg, two cycles): 1257 ± 335 × 10^3 cells/μl
RBC ([2]; 21.25 μmol/kg, two cycles): 9.0 ± 0.5 × 10^6 cells/μl
WBC ([2]; 21.25 μmol/kg, two cycles): 8.4 ± 1.9 × 10^3 cells/μl
change in peripheral white blood cell counts [2]: No change

Nc1nc2nc[nH]c2c(=S)[nH]1 [6-TG, 6-thioguanine]
CC50 (SN12C): > 100 µM
GI50 (SN12C): 1.25 µM
TGI (SN12C): >100 µM
GI50 (SF-539): 1.02 µM
TGI (SF-539): 68.4 µM
CC50 (SF-539): > 100 µM
CC50 (NCI/ADR-RES): > 100 µM
GI50 (NCI/ADR-RES): 0.59 µM
TGI (NCI/ADR-RES): 35.6 µM
GI50 (K-562): 0.4 µM
TGI (K-562): 70.8 µM
CC50 (K-562): > 100 µM
GI50 (UO-31): 1.48 µM
TGI (UO-31): 32.3 µM
CC50 (UO-31): > 100 µM
crypt epithelial apoptosis, large intestines [1]: considerable crypt cell apoptosis
crypt epithelial cell apoptosis, small intestines [1]: extensively
GI50 (NCI-H460): 0.66 µM
TGI (NCI-H460): 20.0 µM
CC50 (NCI-H460): > 100 µM
CC50 (HS 578T): > 100 µM
GI50 (HS 578T): 7.26 µM
TGI (HS 578T): >100 µM
CC50 (MDA-MB-231/ATCC): > 100 µM
GI50 (MDA-MB-231/ATCC): 1.94 µM
TGI (MDA-MB-231/ATCC): >100 µM
GI50 (MDA-MB-435): 0.84 µM
TGI (MDA-MB-435): 31.9 µM
CC50 (MDA-MB-435): > 100 µM
GI50 (HOP-92): 0.73 µM
TGI (HOP-92): 24.0 µM
CC50 (HOP-92): > 100 µM
CC50 (CCRF-CEM): > 100 µM
GI50 (CCRF-CEM): 0.15 µM
TGI (CCRF-CEM): 25.4 µM
GI50 (HT29): 1.13 µM
TGI (HT29): >100 µM
CC50 (HT29): > 100 µM
GI50 (OVCAR-8): 0.69 µM
TGI (OVCAR-8): 60.0 µM
CC50 (OVCAR-8): > 100 µM
PLT ([2]; 8.5 μmol/kg, one cycle): 1172 ± 161 × 10^3 cells/μl
RBC ([2]; 8.5 μmol/kg, one cycle): 8.3 ± 0.4 × 10^6 cells/μl
WBC ([2]; 8.5 μmol/kg, one cycle): 4.8 ± 1.2 × 10^3 cells/μl
PLT ([2]; 8.5 μmol/kg, two cycles): 906 ± 140 × 10^3 cells/μl
RBC ([2]; 8.5 μmol/kg, two cycles): 8.3 ± 0.2 × 10^6 cells/μl
WBC ([2]; 8.5 μmol/kg, two cycles): 5.3 ± 1.6 × 10^3 cells/μl
PLT ([2]; 21.25 μmol/kg, one cycle): 752 ± 416^b × 10^3 cells/μl
RBC ([2]; 21.25 μmol/kg, one cycle): 8.4 ± 0.6^a × 10^6 cells/μl
WBC ([2]; 21.25 μmol/kg, one cycle): 3.8 ± 1.1^b,* × 10^3 cells/μl
PLT ([2]; 21.25 μmol/kg, two cycles): 1351 ± 126 × 10^3 cells/μl
RBC ([2]; 21.25 μmol/kg, two cycles): 8.0 ± 0.3 × 10^6 cells/μl
WBC ([2]; 21.25 μmol/kg, two cycles): 3.6 ± 0.1 × 10^3 cells/μl
change in peripheral white blood cell counts [2]: reduced white blood cell counts

Sc1ncnc2nc[nH]c12 [6-MP, 6-mercaptopurine]
CC50 (SN12C): > 100 µM
GI50 (SN12C): 22.6 µM
TGI (SN12C): >100 µM
GI50 (SF-539): 2.38 µM
TGI (SF-539): >100 µM
CC50 (SF-539): > 100 µM
CC50 (NCI/ADR-RES): > 100 µM
GI50 (NCI/ADR-RES): 3.18 µM
TGI (NCI/ADR-RES): >100 µM
GI50 (K-562): 0.35 µM
TGI (K-562): >100 µM
CC50 (K-562): > 100 µM
GI50 (UO-31): 6.52 µM
TGI (UO-31): >100 µM
CC50 (UO-31): > 100 µM
GI50 (NCI-H460): 5.6 µM
TGI (NCI-H460): >100 µM
CC50 (NCI-H460): > 100 µM
CC50 (HS 578T): > 100 µM
GI50 (HS 578T): 15.7 µM
TGI (HS 578T): >100 µM
CC50 (MDA-MB-231/ATCC): > 100 µM
GI50 (MDA-MB-231/ATCC): 16.4 µM
TGI (MDA-MB-231/ATCC): >100 µM
GI50 (MDA-MB-435): 1.4 µM
TGI (MDA-MB-435): >100 µM
CC50 (MDA-MB-435): > 100 µM
GI50 (HOP-92): 2.6 µM
TGI (HOP-92): >100 µM
CC50 (HOP-92): > 100 µM
CC50 (CCRF-CEM): > 100 µM
GI50 (CCRF-CEM): 1.22 µM
TGI (CCRF-CEM): >100 µM
GI50 (HT29): 3.97 µM
TGI (HT29): >100 µM
CC50 (HT29): > 100 µM
GI50 (OVCAR-8): 2.44 µM
TGI (OVCAR-8): >100 µM
CC50 (OVCAR-8): > 100 µM

CC(=O)C=CSc1nc(N)nc2nc[nH]c12 [trans-AVTG, 6-(2-acetylvinylthio) guanine]
GI50 (IGR-OV1; IGR-OV1, Ovarian, 48 h): 0.03 µM
TGI (IGR-OV1; IGR-OV1, Ovarian, 48 h): 0.08 µM
CC50 (IGR-OV1; IGR-OV1, Ovarian, 48 h): 7.86 µM
GI50 (786-0; 786-0, Renal, 48 h): 0.98 µM
TGI (786-0; 786-0, Renal, 48 h): 21.9 µM
CC50 (786-0; 786-0, Renal, 48 h): > 100 µM
GI50 (BT-549; BT-549, Breast, 48 h): 0.39 µM
TGI (BT-549; BT-549, Breast, 48 h): 5.75 µM
CC50 (BT-549; BT-549, Breast, 48 h): 43.1 µM
GI50 (COLO 205; COLO 205, Colon, 48 h): 1.87 µM
TGI (COLO 205; COLO 205, Colon, 48 h): 3.98 µM
CC50 (COLO 205; COLO 205, Colon, 48 h): 8.43 µM
GI50 (SK-MEL-5; SK-MEL-5, Melanoma, 48 h): 1.68 µM
TGI (SK-MEL-5; SK-MEL-5, Melanoma, 48 h): 8.10 µM
CC50 (SK-MEL-5; SK-MEL-5, Melanoma, 48 h): 41.7 µM
GI50 (RPMI-8226; RPMI-8226, Leukemia, 48 h): 0.24 µM
TGI (RPMI-8226; RPMI-8226, Leukemia, 48 h): 3.19 µM
CC50 (RPMI-8226; RPMI-8226, Leukemia, 48 h): > 100 µM
GI50 (SF-295; SF-295, CNS, 48 h): 0.43 µM
TGI (SF-295; SF-295, CNS, 48 h): 0.92 µM
CC50 (SF-295; SF-295, CNS, 48 h): 82.9 µM

From patent publication US20040023994A1 (priority 2002, published 2004)
